Experiments:
[1] = Supersaturation / spontaneous crystallisation in fermentation solution (heat flow calorimeter, turbidity sensor; MethB); type: physicochemical
Experimental: Within the temperature range of 44° C. to 52° C. the solubility of riboflavin dihydrate and within the temperature range of 44° C. to 59° C. the spontaneous crystallization of riboflavin were investigated. […] In another experiment riboflavin was dissolved at a concentration of 0.7 g l^−1 and at a temperature of 69° C.
The experiments were conducted in a heat flow calorimeter. The process of […] by heating and crystallisation by cooling was monitored by a turbidity sensor. 36 mg of crystals of riboflavin anhydrate I or 60 mg of the crystalline form of riboflavin monohydrate or 120 mg of crystals of riboflavin dihydrate, respectively, were suspended in the fermentation solution and heated to 80° C. at a rate of 0.1° C. per minute. The temperature was held during 60 min. Then the system was cooled again to 20° C. at a rate of 0.1° C./min.
Therefore, another method (MethB) was applied to determine the supersaturation at 39° C.: 420 mg of crystals of riboflavin tetrahydrate were suspended and fully dissolved by heating to 69° C. The concentration of riboflavin was 0.6 mg ml^−1. After cooling again to 39° C., the temperature was kept constant.

[2] = relative humidity of 95%, samples prepared by method of U.S. Pat. No. 2,603,633
Source text: A process for the preparation of riboflavin tetrahydrate is described in U.S. Pat. No. 2,603,633. The process basically uses a solvent to rapidly precipitate the riboflavin in order to obtain the desired tetrahydrate “type C” (modification).

[3] = not given; remark: listed apart in the source
[4] = Soluble fraction of riboflavin in induced and uninduced cultures; type: physicochemical; conditions: fermentation culture induced with seed crystals
Experimental: 500 mg of crystals of riboflavin monohydrate were sterilized at 140° C. for 50 min in an oven, suspended in 5 ml ethanol for 10-200 min, preferably 20-40 min and prior induction 10 ml sterile H2O were added for better handling of the liquid. The suspension was added to the bioreactor after 6 h by a sterile bottle with needle. Crystals of riboflavin dihydrate were formed and in the culture remained monoseptic. From these experiments, it can be concluded that it is possible to direct the crystal modification to riboflavin dihydrate.
In case of the induced cultures this phenomenon is not observed. The solubility of riboflavin (approximately 0.4 gl^−1) is not exceeded. It is controlled by x-ray diffraction whether the crystalline form of the crystals changes during the sterilization procedure.

Cc1cc2nc3c(=O)[nH]c(=O)nc-3n(C[C@H](O)[C@H](O)[C@H](O)CO)c2cc1C.O.O.O.O [riboflavin tetrahydrate]
time until crystallisation started ([1]; 0.6 mg ml^−1 riboflavin, dissolved at 69° C., cooled to and kept at 39° C.): 3 h | temperature of spontaneous crystallisation ([1]; 0.7 mg ml^−1, dissolved at 69° C., cooling): 46 °C | time to transform into riboflavin dihydrate [2]: about 100 min

Cc1cc2nc3c(=O)[nH]c(=O)nc-3n(C[C@H](O)[C@H](O)[C@H](O)CO)c2cc1C [riboflavin dihydrate]
time for complete transformation into riboflavin anhydrate I (80° C.): ≤ 20 s | partial transformation into riboflavin anhydrate I (stirred slurry of pure riboflavin dihydrate, 23° C., in 11 days, Raman spectroscopy): 80% | water contained in the dihydrate structure ([3]; relative humidity of 20%, decreasing RH): about 1.3 mol water per mol riboflavin | water uptake ([3]; relative humidity of about 92%, increasing RH, ambient temperature, sample B/C): 9.57 wt.-%

Cc1cc2nc3c(=O)[nH]c(=O)nc-3n(C[C@H](O)[C@H](O)[C@H](O)CO)c2cc1C [riboflavin anhydrate II]
range of relative humidity at which the crystalline form appeared ([3]; sample modification B/C, DVS with parallel X-ray diffraction, ambient temperature): 0% RH

Cc1cc2nc3c(=O)[nH]c(=O)nc-3n(C[C@H](O)[C@H](O)[C@H](O)CO)c2cc1C [riboflavin anhydrate I, reference compound]
position of the supersaturation line ([1]; 39° C., estimated): above 0.6 g l^−1 | partial transformation into riboflavin dihydrate (stirred slurry only containing riboflavin anhydrate I, 4° C., in 56 days): 80%

Cc1cc2nc3c(=O)[nH]c(=O)nc-3n(C[C@H](O)[C@H](O)[C@H](O)CO)c2cc1C [riboflavin]
supersaturation line ([1]; 39° C., MethB, concluded from the experiments): below 0.6 mg ml^−1 | solubility of riboflavin [4]: approximately 0.4 gl^−1

Cc1cc2nc3c(=O)[nH]c(=O)nc-3n(C[C@H](O)[C@H](O)[C@H](O)CO)c2cc1C [riboflavin anhydrate III]
range of relative humidity in which the crystalline form was identified ([3]; second sample (type C), DVS): 0% < RH % RH

From patent US7670800B2, “Process for the purification of riboflavin” (DSM IP Assets B.V., priority 2003, dated 2010)
